Assay results as given in patent publication US20050080113A1, “Medicinal compositions” (priority 2001, published 2005).

In the case of `COc1ccc(-c2nc(NC(C)=O)sc2-c2ccnc(NC(C)=O)c2)cc1` [H 38, N-[5 (2 acetylamino-4 pyridyl)-4 (4 methoxyphenyl)-1,3-thiazol-2 yl]acetamide], the melting point was 262 to 264 °C. `CC(=O)Nc1nc(-c2cccc(C)c2)c(-c2ccnc(C)c2)s1` [H 39, N-[4-(3-methylphenyl)-5-(2-methyl-4-pyridyl)-1,3-thiazol-2-yl]acetamide] showed a melting point of 230 to 231 °C. `CC(=O)Nc1nc(-c2cc(C)cc(C)c2)c(-c2ccnc(C)c2)s1` [H 40-1, N-[4 (3,5 dimethylphenyl)-5 (2 methyl-4 pyridyl)-1,3 thiazol-2 yl]acetamide] gave a melting point of 236 to 237 °C. Molecule `CC(=O)Nc1nc(-c2cccc(C)c2)c(-c2cc(C)nc(C)c2)s1` [H 40-2, N-[5 (2,6 dimethyl-4-pyridyl)-4 (3 methylphenyl)-1,3 thiazol-2 yl]acetamide] has a melting point of 185 to 187 °C. In the case of `CC(=O)Nc1nc(-c2cc(C)cc(C)c2)c(-c2cc(C)nc(C)c2)s1` [H 40-3, N-[4 (3,5 dimethylphenyl)-5 (2,6 dimethyl-4 pyridyl)-1,3 thiazol-2 yl]acetamide], the melting point was 266 to 267 °C. `Cc1cccc(-c2nc(NC(=O)c3cccnc3)sc2-c2ccnc(C)c2)c1` [H 41, N-[4 (3 methylphenyl)-5 (2-methyl-4 pyridyl)-1,3 thiazol-2 yl]nicotinamide] gave a melting point of 175 to 178 °C. With `Cc1cc(C)cc(-c2nc(NC(=O)c3cccnc3)sc2-c2ccnc(C)c2)c1` [H 42-1, N-[4-(3,5-dimethylphenyl)-5-(2-methyl-4-pyridyl)-1,3-thiazol-2-yl]nicotinamide] the melting point was 203 to 206 °C. `Cc1cc(C)cc(-c2nc(NC(=O)c3cccnc3)sc2-c2cc(C)nc(C)c2)c1` [H 42-2, N-[4 (3,5 dimethylphenyl)-5 (2,6 dimethyl-4 pyridyl)-1,3 thiazol-2 yl]nicotinamide] showed a melting point of 267 to 268 °C. Molecule `Cc1cccc(-c2nc(NC(=O)c3cccnc3)sc2-c2ccnc(NC3CCCCC3)c2)c1` [H 42-3, N-[5 (2 cyclohexylamino-4-pyridyl)-4 (3 methylphenyl)-1,3 thiazol-2 yl]nicotinamide] has a melting point of 201 to 203 °C. With `Cc1cccc(-c2nc(NC(=O)c3cccnc3)sc2-c2ccnc(NC3CCCC3)c2)c1` [H 42-4, N-[5 (2 cyclopentylamino-4 pyridyl)-4 (3 methylphenyl)-1,3 thiazol-2 yl]nicotinamide] the melting point was 215 to 216 °C. `O=C(Nc1nc(-c2ccc(F)cc2)c(-c2ccnc(NC3CCCCC3)c2)s1)c1cccnc1` [H 42-5, N-[5 (2 cyclohexylamino-4-pyridyl)-4 (4 fluorophenyl)-1,3 thiazol-2 yl]nicotinamide] gave a melting point of 136 to 138 °C. For `Cc1cccc(-c2nc(NC(=O)c3cccnc3)sc2-c2ccnc(F)c2)c1` [H 42-6, N-[5 (2 fluoro-4 pyridyl)-4 (3 methylphenyl)-1,3 thiazol-2 yl]nicotinamide], the melting point was 229 to 231 °C. Molecule `Cc1cc(-c2sc(NC(=O)c3cccnc3)nc2-c2ccc(F)cc2)ccn1` [H 42-7, N-[4 (4 fluorophenyl)-5-(2 methyl-4 pyridyl)-1,3 thiazol-2 yl]nicotinamide] has a melting point of 261 to 262 °C. In the case of `Cc1cccc(-c2nc(N(C)C(=O)c3cccnc3)sc2-c2ccnc(NC3CCCCC3)c2)c1` [H 42-8, N-[5 (2 cyclohexylamino-4-pyridyl)-4 (3 methylphenyl)-1,3 thiazol-2 yl]-N-methylnicotinamide], the melting point was 147 to 148 °C. In the case of `Cc1cccc(-c2nc(N(C)C(=O)c3cccnc3)sc2-c2ccnc(NC3CCCC3)c2)c1` [H 42-9, N-[5 (2 cyclopentylamino-4 pyridyl)-4 (3 methylphenyl)-1,3 thiazol-2 yl]N-methylnicotinamide], the melting point was 148 to 149 °C. Molecule `Cc1cccc(-c2nc(NC(=O)c3ccc(Cl)nc3)sc2-c2ccnc(C)c2)c1` [H 43, 6 chloro-N-[4 (3-methylphenyl)-5 (2 methyl-4 pyridyl)-1,3 thiazol-2-yl]nicotinamide] has a melting point of 228 to 230 °C. In the case of `Cc1cccc(-c2nc(NC(=O)c3ccc(Cl)nc3)sc2-c2ccnc(NC3CCCCC3)c2)c1` [H 44-1, 6 chloro-N-[5 (2-cyclohexylamino-4 pyridyl)-4 (3 methylphenyl)-1,3 thiazol-2-yl]nicotinamide], the melting point was 255 to 256 °C. In the case of `Cc1cccc(-c2nc(NC(=O)c3ccc(Cl)nc3)sc2-c2ccnc(NC3CCCC3)c2)c1` [H 44-2, 6 chloro-N-[5 (2-cyclopentylamino-4 pyridyl)-4 (3 methylphenyl)-1,3 thiazol-2-yl]nicotinamide], the melting point was 211 to 212 °C. Molecule `Cc1cccc(-c2nc(N(C)C(=O)c3ccc(Cl)nc3)sc2-c2ccnc(NC3CCCCC3)c2)c1` [H 44-4, 6 chloro-N-[5 (2-cyclohexylamino-4 pyridyl)-4 (3 methylphenyl)-1,3 thiazol-2-yl]-N-methylnicotinamide] has a melting point of 171 to 172 °C. Molecule `Cc1cccc(-c2nc(NC(=O)c3ccc(C)nc3)sc2-c2ccnc(C)c2)c1` [H 45, 6 methyl-N-[4 (3-methylphenyl)-5 (2 methyl-4 pyridyl)-1,3 thiazol-2-yl]nicotinamide] has a melting point of 233 to 234 °C. `Cc1cccc(-c2nc(NC(=O)c3ccc(C)nc3)sc2-c2ccnc(NC3CCCCC3)c2)c1` [H 46-1, N-[5 (2 cyclohexylamino-4-pyridyl)-4 (3 methylphenyl)-1,3 thiazol-2 yl]-6-methylnicotinamide] showed a melting point of 242 to 243 °C. In the case of `Cc1cccc(-c2nc(NC(=O)c3ccc(C)nc3)sc2-c2ccnc(NC3CCCC3)c2)c1` [H 46-2, N-[5 (2 cyclopentylamino-4 pyridyl)-4 (3 methylphenyl)-1,3 thiazol-2 yl]-6-methylnicotinamide], the melting point was 213 to 214 °C. For `COc1ccc(C(=O)Nc2nc(-c3cccc(C)c3)c(-c3ccnc(C)c3)s2)cn1` [H 47, 6 methoxy-N-[4 (3-methylphenyl)-5 (2 methyl-4 pyridyl)-1,3 thiazol-2-yl]nicotinamide], the melting point was 224 to 226 °C. Work on `COc1ccc(C(=O)Nc2nc(-c3cccc(C)c3)c(-c3ccnc(NC4CCCCC4)c3)s2)cn1` [H 48-1, N-[5 (2 cyclohexylamino-4-pyridyl)-4 (3 methylphenyl)-1,3 thiazol-2 yl]-6-methoxynicotinamide] yielded a melting point of 191 to 192 °C. For `COc1ccc(C(=O)Nc2nc(-c3cccc(C)c3)c(-c3ccnc(NC4CCCC4)c3)s2)cn1` [H 48-2, N-[5 (2 cyclopentylamino-4 pyridyl)-4 (3 methylphenyl)-1,3-thiazol-2 yl]-6-methoxynicotinamide], the melting point was 219 to 221 °C. Molecule `COc1ccc(C(=O)Nc2nc(-c3cc(C)cc(C)c3)c(-c3ccnc(C)c3)s2)cn1` [H 48-3, N-[4-(3,5-dimethylphenyl)-5-(2-methyl-4-pyridyl)-1,3-thiazol-2-yl]-6-methoxynicotinamide] has a melting point of 242 to 244 °C. `COc1ncccc1C(=O)Nc1nc(-c2cccc(C)c2)c(-c2ccnc(C)c2)s1` [H 49, 2 methoxy-N-[4 (3-methylphenyl)-5 (2 methyl-4 pyridyl)-1,3 thiazol-2-yl]nicotinamide] gave a melting point of 169 to 170 °C. For `COc1ccc(-c2nc(NC(C)=O)sc2-c2ccnc(N)c2)cc1` [H 50, N-[5 (2 amino-4 pyridyl)-4-(4 methoxyphenyl)-1,3 thiazol-2 yl]acetamide], the melting point was 247 to 250 °C. `COc1ccc(-c2nc(NC(=O)c3ccccc3)sc2-c2ccnc(N)c2)cc1` [H 51, N-[5 (2 amino-4 pyridyl)-4-(4 methoxyphenyl)-1,3 thiazol-2 yl]benzamide] showed a melting point of 219 to 222 °C. In the case of `Cc1cccc(-c2sc(NC(=O)Nc3ccccc3)nc2-c2cc(C)nc(C)c2)c1` [H 52, N-[4 (2,6 dimethyl-4 pyridyl)-5 (3 methylphenyl)-1,3 thiazol-2 yl]-N′-phenylurea], the melting point was 173 to 174 °C. Work on `Cc1cc(C)cc(-c2nc(NC(=O)Nc3ccccc3)sc2-c2cc(C)nc(C)c2)c1` [H 53-1, N-[4 (3,5 dimethylphenyl)-5 (2,6 dimethyl-4 pyridyl)-1,3 thiazol-2 yl]-N′-phenylurea] yielded a melting point of 219 to 222 °C. For `Cc1cccc(-c2nc(NC(=O)Nc3ccccc3)sc2-c2ccnc(NC3CCCCC3)c2)c1` [H 53-2, N-[5 (2 cyclohexylamino-4-pyridyl)-4 (3 methylphenyl)-1,3 thiazol-2 yl]-N′-phenylurea], the melting point was 198 to 199 °C. With `Cc1cccc(-c2nc(NC(=O)Nc3ccccc3)sc2-c2ccnc(NC3CCCC3)c2)c1` [H 53-3, N-[5 (2 cyclopentylamino-4 pyridyl)-4 (3 methylphenyl)-1,3 thiazol-2 yl]-N′-phenylurea] the melting point was 188 to 190 °C. `Cc1cccc(-c2nc(NC(=O)Nc3ccccc3)sc2-c2ccnc(C)c2)c1` [H 53-4, N-[4 (3 methylphenyl)-5-(2 methyl-4 pyridyl)-1,3 thiazol-2 yl]-N′-phenylurea] showed a melting point of 168 to 169 °C. `Cc1cccc(-c2nc(-c3ccc([S+](C)[O-])cc3)sc2-c2ccnc(C)c2)c1` (stereo not drawn) [H 54, 4-(3-methylphenyl)-5-(2-methyl-4-pyridyl)-2-(4-methylsulfinylphenyl)-1,3-thiazole] showed a melting point of 128 to 130 °C. Molecule `Cc1cccc(-c2nc(-c3ccc([S+](C)[O-])cc3)sc2-c2cc(C)nc(C)c2)c1` (stereo not drawn) [H 55, 5 (2,6 dimethyl-4 pyridyl)-4 (3 methylphenyl)-2 (4-methylsulfinylphenyl)-1,3 thiazole] has a melting point of 133 to 134 °C. In the case of `Cc1cc(C)cc(-c2nc(-c3ccc([S+](C)[O-])cc3)sc2-c2ccnc(C)c2)c1` (stereo not drawn) [H 56-1, 4 (3,5 dimethylphenyl)-5-(2 methyl-4 pyridyl)-2 (4 methylsulfinylphenyl)-1,3 thiazole], the melting point was 151 to 153 °C. For `Cc1cc(C)cc(-c2nc(-c3ccc([S+](C)[O-])cc3)sc2-c2cc(C)nc(C)c2)c1` (stereo not drawn) [H 56-2, 4 (3,5 dimethylphenyl)-5-(2,6 dimethyl-4 pyridyl)-2 (4 methylsulfinylphenyl)-1,3-thiazole], the melting point was 151 to 154 °C. In the case of `Cc1cc(C)cc(-c2nc(-c3ccc(S(C)(=O)=O)cc3)sc2-c2ccnc(C)c2)c1` [H 58-1, 4 (3,5 dimethylphenyl)-5-(2 methyl-4 pyridyl)-2 (4 methylsulfonylphenyl)-1,3 thiazole], the melting point was 196 to 197 °C.
